# How the values were obtained:
# aqueous solubility = settings: for solubility (in words): crystalline salts
# [1] = conversion of prodrug to parent drug in vivo
# [2] = stability (in solution / of salts); settings: for stability (in words): crystalline salts
structure (smiles),measurement,setting,value
"C[C@@H](c1nc(-c2ccc(C#N)cc2)cs1)[C@](O)(Cn1cncn1)c1ccc(F)cc1F [(2R,3R)-3-[4-(4-cyanophenyl)thiazol-2-yl]-2-(2,4-difluorophenyl)-1-(1 H-1,2,4-triazol-1-yl)-butan-2-ol, reference compound]",solubility,"aqueous solubility; water, pH 6.8, water",0.6 µg/mL
"C[C@@H](c1nc(-c2ccc(C#N)cc2)cs1)[C@@](Cn1cncn1)(OCOP(=O)(O)O)c1ccc(F)cc1F [Example 2, (2R,3R)-3-[4-(4-cyanophenyl)thiazol-2-yl]-2-(2,4-difluorophenyl)-1-(1H-1,2,4-triazol-1-yl)-2-[(dihydrogenphosphonoxy)methoxy]butane]",conversion to parent drug in vivo,[1],readily converted to parent drug in vivo
same,solubility,"aqueous solubility; aqueous solution, pH 4.3, aqueous buffer",5000 to 6000 µg/mL
same,solubility,"aqueous solubility; aqueous solution, pH 7, aqueous buffer",> 10000 µg/mL
same,stability in solution,[2]; in solution,stable in solution
"C[C@@H](c1nc(-c2ccc(C#N)cc2)cs1)[C@@](Cn1cncn1)(OCOP(=O)(O)O)c1ccc(F)cc1F.NCCCC[C@H](N)C(=O)O.NCCCC[C@H](N)C(=O)O [Example 3, Bis lysine salt of (2R,3R)-3-[4-(4-cyanophenyl)thiazol-2-yl]-2-(2,4-difluorophenyl)-1-(1H-1,2,4-triazol-1-yl)-2-[(dihydrogenphosphonoxy)methoxy]butane]",solubility (in words),aqueous solubility,good solubility
same,stability (in words),[2],good solubility and stability
"CC(C)(C)N.C[C@@H](c1nc(-c2ccc(C#N)cc2)cs1)[C@@](Cn1cncn1)(OCOP(=O)(O)O)c1ccc(F)cc1F [Example 4, Tert-butyl amine salt of (2R,3R)-3-[4-(4-cyanophenyl)thiazol-2-yl]-2-(2,4-difluorophenyl)-1-(1H-1,2,4-triazol-1-yl)-2-[(dihydrogenphosphonoxy)methoxy]butane]",solubility (in words),aqueous solubility,good solubility
same,stability (in words),[2],good solubility and stability

# Source: patent US6448401B1, “Process for water soluble azole compounds” (Bristol-Myers Squibb Company, priority 2000, dated 2002)
